According to patent US20240408053A1, “ENTERITIS-SUPPRESSING COMPOSITION” (KOBE GAKUIN EDUCATIONAL FOUNDATION, priority 2021, published 2024):
“Also recorded” adds a separate entry of the source.

Legend:
secretory IgA = assay: Amount of secretory IgA in colon tissue of mice; assay type: in vivo; settings: group ES: 2.0% v/v ethanol diet + 2.5 mg sesaminol per day oral, 4 weeks, vs group E; level similar to group C
Protocol: (§1) The effect of oral administration of sesaminol on the amount of mucus secretion in mouse colon was examined by measuring the amount of fecal mucin of the mice in each group (groups C, E, S, and ES) and the amount of secretory immunoglobulin A (sIgA) in the colon tissue of the mice.
After liquid nitrogen treatment, the amount of sigA in each colon tissue stored at −80° C. was quantified according to the product protocol of a reagent kit for measuring secretory IgA (QuickDetect (trademark) Secretory IgA (Mouse) ELISA kit, produced by BioVision, Inc.). The resulting value was converted to the secretory IgA concentration (ng/ml) per 100 mg of the tissue and evaluated.

MCP-1 = MCP-1 expression in colon tissue (qRT-PCR, ELISA); assay type: in vivo, mice; settings: group ES: 2.0% v/v ethanol diet + 2.5 mg sesaminol per day oral, 2 weeks, vs group E; higher than group C
Excerpt: It has been reported that chronic consumption of an excessive amount of ethanol can induce inflammation associated with tumor formation in colon tissue. Therefore, in order to verify whether oral administration of sesaminol has a preventive effect on ethanol-induced colitis, the expression levels of inflammatory cytokines (TNF-α and IL-6) and chemokine (MCP-1) in the large intestinal lamina propria of the mice in the four groups (groups C, S, E, and ES) were examined by qRT-PCR and ELISA. The NF-κB activity in the mice in the four groups was also examined. NF-κB is a transcription factor that is involved in expression of genes regulating inflammation and is activated by exposure of immune cells to pro-inflammatory factors.
Total RNA was extracted from colon tissue samples. […]
A colon tissue sample (100 mg) was homogenized in 1 mL of an M-PER mammalian protein extraction reagent (Pierce) containing a diluent of a protease inhibitor cocktail (Nacalai Tesque, Inc.), and the resulting homogenate was centrifuged at 20,000× g at 4° C. for 15 minutes. The protein concentration of the supernatant was measured with a protein assay reagent (Bio-Rad Laboratories, Inc.), and equal amounts of proteins were used for analysis of the expression levels of TNF-α, IL-6, and MCP-1 by ELISA.

occludin = assay: Immunofluorescence staining of Occludin in colon tissue, 4 weeks; assay type: in vivo, mice; settings: group ES: 2.0% v/v ethanol diet + 2.5 mg sesaminol per day oral, group E significant decrease
Protocol: (§2) Next, in order to verify the longer-term effect of oral administration of sesaminol on ethanol-induced intestinal tight junction (TJ) dysfunction and leaky gut, histological analysis of colonic epithelial TJ proteins (ZO-1, Occludin, and Claudin-1) and analysis of the plasma LPS level were performed using the mice in each group (groups C, S, E, and ES) described in Example 7. Histological analysis was performed by immunofluorescence staining with anti-ZO-1, anti-Occludin, and anti-Claudin-1 antibodies, followed by observation under a fluorescence microscope. The Plasma LPS level was measured according to the method described in Example 6.

MDA+HAE = assay: Lipid peroxide measurement (MDA+HAE) in colon tissue; assay type: in vivo, mice; settings: group ES: 2.0% v/v ethanol diet + 2.5 mg sesaminol per day oral, 2 weeks; group E highest
Protocol: Lipid peroxidation is used as an indicator of oxidative stress in cells and tissues; lipid peroxides produce MDA and HAE upon degradation. Therefore, the MDA+HAE level in colon tissue was examined as a marker of lipid peroxidation response.
A colon tissue sample (100 mg) was homogenized in 1 mL of 20 mM phosphate buffered saline (pH of 7.4) with a homogenizer and centrifuged at 3,000× g at 4° C. for 10 minutes. The resulting precipitate was examined for malondialdehyde (MDA) and 4-hydroxyalkenals (HAE) using a lipid peroxide assay kit (Oxford Biomedical Research, Inc.).

Nrf2 = Nrf2 activation level in colon tissue extracts by ELISA; assay type: in vivo, mice; settings: group ES: 2.0% v/v ethanol diet + 2.5 mg sesaminol per day oral, 2 weeks; group E significantly reduced
Protocol: The Nrf2 transcription factor is a master regulator of cytoprotection and promotes HO-1 gene expression in intracellular response to oxidative stress. Thus, in terms of the decrease in the HO-1 expression level in group E, the activation level of the Nrf2 transcription factor was examined. The protein amounts in the colon tissue extracts of the groups were adjusted to be equal, and Nrf2 activation levels in the colon tissue extracts were determined by ELISA.

fecal mucin = assay: Amount of fecal mucin of mice; assay type: in vivo; settings: group ES: 2.0% v/v ethanol diet + 2.5 mg sesaminol per day oral, 4 weeks, vs group E; level similar to group C
Excerpt: as §1
Fecal samples were each freeze-dried overnight in a freeze-drying equipment and then formed into a powder. After weighing each of the dried, powdered feces, fecal mucin was quantified according to the product protocol of a reagent kit for measuring fecal mucin (Fecal Mucin Assay Kit, produced by Cosmo Bio Co., Ltd.), and converted to the mucin amount (ug) per amount of dry feces (g). The results were evaluated.

LPS = assay: Plasma LPS level (LAL assay), 2 weeks; assay type: in vivo, mice; settings: group ES: 2.0% v/v ethanol diet + 2.5 mg sesaminol per day oral, vs group E, higher than group C
Excerpt: (§3) Acetaldehyde, which accumulates during ethanol metabolism, is known to disrupt intestinal tight junctions (TJs) via dissociation of colonic epithelium TJ proteins (ZO-1, occludin, and claudin-1) from the cytoskeleton. […] Therefore, whether oral administration of sesaminol would affect ethanol-induced intestinal barrier dysfunction was examined by analyzing the expression levels of colonic epithelial TJ proteins and the plasma LPS level in the mice in the four groups (groups C, S, E, and ES).
The plasma LPS concentration was measured with a limulus amebocyte lysate (LAL) assay.

claudin-1 [1] = assay: Immunofluorescence staining of Claudin-1 in colon tissue, 4 weeks; assay type: in vivo, mice; settings: group ES: 2.0% v/v ethanol diet + 2.5 mg sesaminol per day oral, group E significant decrease
Protocol: as §2

claudin-1 [2] = assay: Western blotting of claudin-1 in colon tissue; assay type: in vivo, mice; settings: group ES: 2.0% v/v ethanol diet + 2.5 mg sesaminol per day oral, 2 weeks, vs group E; lower than group C
Excerpt: as §3
WB was performed in the same manner as in Example 4 above. The following primary antibodies were used. • Anti-mouse zonula occludens-1 protein (ZO-1) rabbit polyclonal antibody • Anti-mouse occludin rabbit polyclonal antibody • Anti-mouse claudin-1 rabbit polyclonal antibody

## Oc1cc2c(cc1C1OCC3C(c4ccc5c(c4)OCO5)OCC13)OCO2 (stereo not drawn) [Sesaminol]
Secretory IgA
  amount of secretory IgA in colon tissue: significantly higher than that in group E
MCP-1
  expression level of MCP-1 (mRNA by qRT-PCR, protein by ELISA): significantly lower than those in group E
occludin
  protein level of Occludin in colon tissue (fluorescence microscope observation): improvement in all of those levels
MDA+HAE
  MDA+HAE level in colon tissue: next highest value; also recorded: slightly higher than those of group C and group S
Nrf2
  Nrf2 activation level: recovered to a level similar to that in group C
Fecal mucin
  amount of fecal mucin: significantly higher than that in group E
LPS
  plasma LPS level: significantly lower than that in group E
claudin-1 [1]
  protein level of Claudin-1 in colon tissue (fluorescence microscope observation): improvement in all of those levels
claudin-1 [2]
  expression level of claudin-1: significantly higher than those in group E
